*1 amine or outer side, *2 acyl side, *3 side chain or, on linkers, in order; H or OH if unused. Where a SMILES comes first, the peptide text is derived from it. Bridges are numbered along the chain shown (N, C = ends). [ ]: non-standard residue; d: D form. Diglycolyl = O=C(COCC(=O)[*:2])[*:1]; Cba = N[C@@H](CC1CCC1)C(=O)O; Nle = CCCC[C@H](N)C(=O)O

Results on 5 compounds are retold here after PMC11522901, “Translation of Deoxyribonucleic Acid into Synthetic Alpha Helical Peptides for Darwinian Evolution” (JACS Au, 2024).

In this assay the target is T1, MDM2 (Homo sapiens, UniProt Q00987).
T1 construct: made in house
T1 sequence (Q00987 whole entry, species assumed): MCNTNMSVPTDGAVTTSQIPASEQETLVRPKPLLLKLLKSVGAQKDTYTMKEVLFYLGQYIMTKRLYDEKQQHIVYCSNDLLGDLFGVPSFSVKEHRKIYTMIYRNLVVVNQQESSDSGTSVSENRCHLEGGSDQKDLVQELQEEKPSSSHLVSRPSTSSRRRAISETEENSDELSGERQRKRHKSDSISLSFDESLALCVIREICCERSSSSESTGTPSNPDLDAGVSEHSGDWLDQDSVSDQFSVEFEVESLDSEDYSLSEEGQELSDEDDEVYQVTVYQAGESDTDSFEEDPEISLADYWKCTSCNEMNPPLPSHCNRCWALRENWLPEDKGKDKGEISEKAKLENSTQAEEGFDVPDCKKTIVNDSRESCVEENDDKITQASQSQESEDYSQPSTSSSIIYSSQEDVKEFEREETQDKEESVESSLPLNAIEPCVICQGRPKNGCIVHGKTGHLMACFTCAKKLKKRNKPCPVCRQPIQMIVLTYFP
Put plainly: Surface plasmon resonance (SPR) against captured GST-MDM2. It is filed as binding. Conditions: for koff / kon: SPR Biacore T200, 25 °C, PBS-P+, GST-MDM2 captured via anti-GST antibody on CM5 chip, 2-fold dilutions 250 nM to 3.91 nM, association 250 s, dissociation 400 s. On the procedure: SPR experiments were performed on a Biacore T200 instrument (GE Healthcare) at 25 °C in PBS-P+ buffer (10× stock; Cytiva Life Sciences #28995084). One mL PP 96-well plates (Greiner #780201) were used for dilution directly in the plates. Anti-GST antibody (Cytiva #27457701) was chemically immobilized on a CM5 series S sensor chip (Cytiva Life Sciences #29149604) by EDC/NHS-mediated coupling. For this, an amine coupling kit (Cytiva Life Sciences #BR100633) and the recommended protocol were followed with the following specifications: 20 μg/mL of antibody diluted in 10 mM NaAc pH 5.0 buffer flowed over both flow channels for 600 s (flow rate 10 μL min^–1).
Kinetic measurements consisted of ligand capture of GST-MDM2 (200 nM, 350 s injection, flow rate 10 μL min^–1, stabilization 60 s), followed by injections (association, 250 s; dissociation, 400 s; flow rate, 30 μL min^–1) of decreasing concentrations of compounds (2-fold cascade dilutions from the starting concentration). The chip was regenerated between cycles by one injection of regeneration solution (10 mM glycine-HCl at pH 1.5) for 10 s at a flow rate of 30 μL min^–1, followed by a 120 s stabilization period. Binding was measured as resonance units over time after blank subtraction, and the data were interpreted using Biacore T200 software (version 3.2). The KD values were calculated based on steady-state affinity (1:1 binding). […]
5. Surface Plasmon Resonance Results […]
dotted lines representing the fittings from which the kinetic values are calculated. The compounds […]
shown in Figure 6 are tested at 250 nM (highest concentration) with a 2-fold dilution series until 3.91 nM (lowest concentration).
SPR Curves of compounds 4.1 and 4.4
4.1: Concentrations tested: 125 nM to 3.91 nM (2-fold dilutions) – KD: ND
Supplementary Figure 4. SPR curve of compound 4.1 against MDM2
A general note: SPR reads the build-up and loss of mass on a sensor chip optically.

The koff is the first-order rate constant of dissociation. Usually kon stands for the second-order rate constant of association. The compound `CCCC[C@H](NC(=O)[C@H](CC1CCC1)NC(=O)[C@H](CCC(N)=O)NC(=O)[C@H](C)NC(=O)[C@H](Cc1c[nH]c2ccccc12)NC(=O)[C@H](Cc1ccc(O)cc1)NC(=O)[C@H](CCC(N)=O)NC(=O)[C@H](CCCC)NC(=O)[C@H](Cc1ccccc1)NC(=O)[C@@H](NC(=O)[C@H](CC(C)C)NC(=O)CNC(C)=O)[C@@H](C)O)C(=O)N[C@@H](CO)C(=O)NCC(=O)N[C@@H](CCCNC(=N)N)C(N)=O` [1.1 (Linear)] (Ac-GLTF[Nle]QYWAQ[Cba][Nle]SGR-NH2; N-terminus and C-terminus assumed) displayed a koff of 0.0022 s⁻¹ and a kon of 73000 M⁻¹ s⁻¹. In addition, where the note is “linear peptide without PNA versus PNA-constrained 1.1, 30 versus 0.7 nM”, the loss of binding worked out at 40 fold.
Compound `CCCC[C@H](NC(=O)[C@H](CC1CCC1)NC(=O)[C@H](CCC(N)=O)NC(=O)[C@H](C)NC(=O)[C@H](Cc1c[nH]c2ccccc12)NC(=O)[C@H](Cc1ccc(O)cc1)NC(=O)[C@H](CCC(N)=O)NC(=O)[C@H](CCCC)NC(=O)[C@H](Cc1ccccc1)NC(=O)[C@@H](NC(=O)[C@H](CC(C)C)NC(=O)CNC(=O)CN(CCNC(=O)CN(CCNC(=O)CN(CCNC(=O)CN(CCNC(=O)[C@H](CCCNC(=N)N)NC(=O)COCCOCCNC(=O)[C@H](CCCNC(=N)N)NC(=O)CN(CCNC(=O)CN(CCNC(=O)CN(CCNC(=O)CN(CCNC(=O)CN(CCNC(=O)CN(CCNC(=O)CN(CCNC(=O)CN(CCNC(=O)[C@H](CCCNC(=N)N)NC(C)=O)C(=O)Cn1cnc2c(=O)[nH]c(N)nc21)C(=O)Cn1ccc(N)nc1=O)C(=O)Cn1ccc(N)nc1=O)C(=O)Cn1cnc2c(=O)[nH]c(N)nc21)C(=O)Cn1cc(C)c(=O)[nH]c1=O)C(=O)Cn1cnc2c(N)ncnc21)C(=O)Cn1cnc2c(=O)[nH]c(N)nc21)C(=O)Cn1cnc2c(=O)[nH]c(N)nc21)C(=O)Cn1ccc(N)nc1=O)C(=O)Cn1ccc(N)nc1=O)C(=O)Cn1cc(C)c(=O)[nH]c1=O)C(=O)Cn1cnc2c(N)ncnc21)[C@@H](C)O)C(=O)N[C@@H](CO)C(=O)NCC(=O)NCCN(CC(=O)NCCN(CC(=O)NCCN(CC(=O)NCCN(CC(=O)N[C@@H](CCCNC(=N)N)C(N)=O)C(=O)Cn1ccc(N)nc1=O)C(=O)Cn1cnc2c(=O)[nH]c(N)nc21)C(=O)Cn1cnc2c(=O)[nH]c(N)nc21)C(=O)Cn1ccc(N)nc1=O` [1.1 (PNA)] had a koff of 0.0014 s⁻¹ and a kon of 1.9e+06 M⁻¹ s⁻¹.
In the same order, the values of `CCCC[C@H](NC(=O)[C@H](CC1CCC1)NC(=O)[C@H](CCC(N)=O)NC(=O)[C@H](C)NC(=O)[C@H](Cc1c[nH]c2ccccc12)NC(=O)[C@H](Cc1ccc(O)cc1)NC(=O)[C@H](CCC(N)=O)NC(=O)[C@H](CCCC)NC(=O)[C@H](Cc1ccc(F)c(F)c1)NC(=O)[C@@H](NC(=O)[C@H](CC(C)C)NC(=O)CNC(=O)CN(CCNC(=O)CN(CCNC(=O)CN(CCNC(=O)CN(CCNC(=O)[C@H](CCCNC(=N)N)NC(=O)COCCOCCNC(=O)[C@H](CCCNC(=N)N)NC(=O)CN(CCNC(=O)CN(CCNC(=O)CN(CCNC(=O)CN(CCNC(=O)CN(CCNC(=O)CN(CCNC(=O)CN(CCNC(=O)CN(CCNC(=O)[C@H](CCCNC(=N)N)NC(C)=O)C(=O)Cn1cnc2c(=O)[nH]c(N)nc21)C(=O)Cn1ccc(N)nc1=O)C(=O)Cn1ccc(N)nc1=O)C(=O)Cn1cnc2c(=O)[nH]c(N)nc21)C(=O)Cn1cc(C)c(=O)[nH]c1=O)C(=O)Cn1cnc2c(N)ncnc21)C(=O)Cn1cnc2c(=O)[nH]c(N)nc21)C(=O)Cn1cnc2c(=O)[nH]c(N)nc21)C(=O)Cn1ccc(N)nc1=O)C(=O)Cn1ccc(N)nc1=O)C(=O)Cn1cc(C)c(=O)[nH]c1=O)C(=O)Cn1cnc2c(N)ncnc21)[C@@H](C)O)C(=O)N[C@@H](CO)C(=O)NCC(=O)NCCN(CC(=O)NCCN(CC(=O)NCCN(CC(=O)NCCN(CC(=O)N[C@@H](CCCNC(=N)N)C(N)=O)C(=O)Cn1ccc(N)nc1=O)C(=O)Cn1cnc2c(=O)[nH]c(N)nc21)C(=O)Cn1cnc2c(=O)[nH]c(N)nc21)C(=O)Cn1ccc(N)nc1=O` [1.2 (PNA)] are 0.002 s⁻¹ and 1.2e+06 M⁻¹ s⁻¹.
Take `CCCC[C@H](NC(=O)[C@H](CC(C)C)NC(=O)[C@H](CCC(N)=O)NC(=O)[C@H](C)NC(=O)[C@H](Cc1c[nH]c2ccccc12)NC(=O)[C@H](Cc1ccc(O)cc1)NC(=O)[C@H](CCC(N)=O)NC(=O)[C@H](CCCC)NC(=O)[C@H](Cc1ccc(F)c(F)c1)NC(=O)[C@@H](NC(=O)[C@H](CC(C)C)NC(=O)CNC(=O)CN(CCNC(=O)CN(CCNC(=O)CN(CCNC(=O)CN(CCNC(=O)[C@H](CCCNC(=N)N)NC(=O)COCCOCCNC(=O)[C@H](CCCNC(=N)N)NC(=O)CN(CCNC(=O)CN(CCNC(=O)CN(CCNC(=O)CN(CCNC(=O)CN(CCNC(=O)CN(CCNC(=O)CN(CCNC(=O)CN(CCNC(=O)[C@H](CCCNC(=N)N)NC(C)=O)C(=O)Cn1cnc2c(=O)[nH]c(N)nc21)C(=O)Cn1ccc(N)nc1=O)C(=O)Cn1ccc(N)nc1=O)C(=O)Cn1cnc2c(=O)[nH]c(N)nc21)C(=O)Cn1cc(C)c(=O)[nH]c1=O)C(=O)Cn1cnc2c(N)ncnc21)C(=O)Cn1cnc2c(=O)[nH]c(N)nc21)C(=O)Cn1cnc2c(=O)[nH]c(N)nc21)C(=O)Cn1ccc(N)nc1=O)C(=O)Cn1ccc(N)nc1=O)C(=O)Cn1cc(C)c(=O)[nH]c1=O)C(=O)Cn1cnc2c(N)ncnc21)[C@@H](C)O)C(=O)N[C@@H](CO)C(=O)NCC(=O)NCCN(CC(=O)NCCN(CC(=O)NCCN(CC(=O)NCCN(CC(=O)N[C@@H](CCCNC(=N)N)C(N)=O)C(=O)Cn1ccc(N)nc1=O)C(=O)Cn1cnc2c(=O)[nH]c(N)nc21)C(=O)Cn1cnc2c(=O)[nH]c(N)nc21)C(=O)Cn1ccc(N)nc1=O` [2.2 (PNA)]: the koff turned out to be 0.0029 s⁻¹ and the kon was determined as 830000 M⁻¹ s⁻¹.
The like results for `CCCC[C@@H]1NC(=O)[C@H](CC2CCC2)NC(=O)[C@H](CCC(N)=O)NC(=O)[C@H](C)NC(=O)[C@H](Cc2c[nH]c3ccccc23)NC(=O)[C@H](Cc2ccc(O)cc2)NC(=O)[C@H](CCC(N)=O)NC(=O)[C@H](CCCC)NC(=O)[C@H](Cc2ccccc2)NC(=O)[C@H]([C@@H](C)O)NC(=O)[C@H](CC(C)C)NC(=O)CNC(=O)COCC(=O)NCCCC[C@@H](C(=O)N[C@@H](CCCNC(=N)N)C(N)=O)NC(=O)CNC(=O)[C@H](CO)NC1=O` [1.1 (Cyclic)] (GLTF[Nle]QYWAQ[Cba][Nle]SGKR-NH2; linker N-15 via Diglycolyl; C-terminus assumed) were, in that order, 0.0024 s⁻¹ and 320000 M⁻¹ s⁻¹.
